Reference: patent US20130288275A1, “COMPOSITIONS AND METHODS FOR DETECTING ACETYLATED SUMO PROTEINS” (Georgetown University, priority 2010, published 2013)

Tests used:
SUMO-1 acetylation = assay: Modulation of SUMO-1 acetylation in H1299 cells expressing SUMO-1; assay type: cell-based, human; settings: 500 nM TSA or 1 μM etoposide, versus untreated cells
Description: FIG. 3. SUMO-1 is acetylated when bound to its substrates. A. A polyclonal antibody raised against a SUMO-1 peptide SEIHF{Lys-Ac}[…] acetylated at K37 was raised and purified by peptide affinity purification. The specificity of this antibody was tested first in an in vitro acetylation reaction similar to that described in FIG. 2A. SUMO-1 was incubated in the presence (lane 3) or absence (lane 2) of CBP and cold Acetyl-coenzyme A. Lane 1 contains the acetylation reaction with CBP alone without SUMO-1. Samples were subjected to SDS electrophoresis, blotted on a PDF membrane, and probed with Ac-K37-Ab in immunoblot (upper panel). After chemi-luminescence, the membrane was stained with Comassie Brilliant Blue to reveal SUMO-1 (lower panel). B. Acetylation of SUMO-1 in vivo. Control H1299 cells (lanes 1 and 4) or H1299 expressing naïve SUMO-1 (lanes 2 and 5) or a SUMO-1 harboring lysine to arginine replacements at position K37-K39 and K45-K46-K48 (SUMOK37-K48R, lanes 3 and 6) were induced with tetracycline. […] Following electrophoresis and transfer, membranes were immuno-blotted with the Ac-K37-Ab (left panel, lanes 1-3). Forty micrograms of total cell extracts were probed with the anti-Flag antibody in direct immuno-blot (right panel, lanes 4-6). The position of free SUMO-1 and of SUMO-1 conjugated to RanGap is indicated by arrows. C. Modulation of SUMO-1 acetylation by deacetylases and by DNA damaging agents. H1299 cells expressing SUMO-1 were left untreated (lanes 1 and 5) or they were treated with 500 nM TSA (lanes 2 and 6), with 1 μM etoposide (lanes 3 and 7), or with 100 mM H2O2 (lanes 4 and 8). Cell extracts were prepared in RIPA buffer, immuno-precipitated with the anti-Flag antibody and processed in immuno-blot with the Ac-K37-Ab as described in B (lanes 1-4). Total cell extracts are shown in the right panel. The position of SUMO-1, RanGaP and of SUMO-1 conjugates is indicated. Full arrows indicate non specific reactivity of the Ac-K37-Ab with heavy and light chains of the anti-Flag immuno-precipitation.
Unless otherwise indicated, cell extracts were prepared in RIPA buffer (0.1% SDS; 50 mM Tris.Cl, pH 6.8; 150 mM NaCl; 0.5% Nonidet P-40; 2 mM EDTA) supplemented with protease a protease inhibitor mixture, with TSA (500 μM) and with […] NEM as an inhibitor of de-sumoylation. Treatment with etoposide was performed at […] overnight. When probed with the anti-SUMO or anti-acetyl-K37 antibody (37-1Ab) in direct immuno-blot, membranes where treated with 6 M Guanidine for 30 minutes, followed by incubation in blocking solution. The Ac-K37 (37-1Ab) antibody was used to a 1:500 dilution in direct immuno-blots on in vitro acetylation reactions (i.e., FIG. 3A) and to a 1:250 dilution for the experiments in cells and in murine tumors. […]

CBP [1] = target: T1, CBP (Homo sapiens, UniProt Q92793); assay: Peptide competition of CBP-mediated acetylation of full-length SUMO-1; assay type: biochemical; settings: cold acetylated peptide in 10 fold excess relatively to full length SUMO-1; 14C-acetyl CoA
T1 construct: purified SUMO-1 protein and the catalytic domain of several acetyltransferases, specifically of CBP and PCAF; purchased Biomol
T1 sequence (Q92793 1323-1700 limits assumed): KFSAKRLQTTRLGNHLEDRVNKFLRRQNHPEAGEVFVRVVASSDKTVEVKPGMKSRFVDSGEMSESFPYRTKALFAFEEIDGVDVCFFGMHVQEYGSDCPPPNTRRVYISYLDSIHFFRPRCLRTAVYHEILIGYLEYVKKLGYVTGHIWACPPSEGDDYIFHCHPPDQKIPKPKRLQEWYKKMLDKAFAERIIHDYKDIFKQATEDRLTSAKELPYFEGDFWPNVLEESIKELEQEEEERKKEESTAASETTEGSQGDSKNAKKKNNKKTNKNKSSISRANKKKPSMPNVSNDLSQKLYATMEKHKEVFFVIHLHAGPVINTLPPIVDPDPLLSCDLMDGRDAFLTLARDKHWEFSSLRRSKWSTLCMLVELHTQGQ
Description: (§1) FIG. 2. Identification of an acetylated domain of SUMO-1 conserved among SUMO family members. A. Purified SUMO1 was subjected to an in vitro acetylation reaction in the absence (lane 2) or presence (lane 3) of CBP, and of 14C-Acetyl-Coenzyme A. Lane 1 contain CBP in the absence of SUMO-1. Reactions were assembled in 30 μl volume, and developed with autoradiography. 1/20 of the reaction mixtures were run independently and proteins were visualized with Coomassie Brilliant Blue staining (lanes 4-6). The position of SUMO-1 and CBP is indicated by arrows. B. Peptide competition experiments. The following acetylated peptides were used: K25-K27:YIK(Ac)LK(Ac)VIG (lane 2); peptide K37-K39:HFK(Ac)VK(Ac)MTT (lane 3); peptide K45-K46-K48:HLK(Ac)K(Ac)LK(Ac)ES (lane 4). Lane 1 contains the acetylation reaction with a control peptide ([…]) and lane 5 contains the acetylation reaction without peptide(s). Polypeptides were incubated in a 10 fold excess relatively to full length SUMO-1. C. Identification of lysines residues acetylated in vitro and in vivo by mass spectrometry and alignment of acetylated residues in SUMO-1 with SUMO-2 and SUMO-3. Acetylated lysines of SUMO-1 are indicated by arrows and bolded in red, and conserved residues are shown. Based on the results of Mass Spectrometry we name the domain comprised between amino acid K37 to K48 SUMO-1 Acetylated Domain, or SAD. D. Acetylation of SUMO family members. Acetylation reactions were carried out as described in A. SUMO-1 (lanes 2, 5) SUMO-2 (lanes 3, 6), or SUMO-3 (lanes 4, 7) were subjected to an acetylation reaction in absence (lanes 2-4) or presence (lanes 5-7; indicated by +) of CBP. Lane 1 contains an acetylation reaction with CBP without SUMO proteins.
Acetylation reactions were typically assembled in a 30 μl volume, containing HAT buffer (1×25 mM Tris-HCl ph 7.9; 50 mM NaCl, 1 mM DTT), 6 μl of ^14C-Acetyl-Coenzyme A (Amersham) or cold Acetyl-Coenzyme A (lithium salt, from Roche), 1-2 μg CBP, 0.5-1 μg of SUMO proteins. […]

H1299 cells = assay: Cell cycle analysis by flow cytometry; assay type: cell-based, human; settings: H1299 cells infected with adenovirus expressing p53, 72 hours after infection
Description: FIG. 5. […] 72 hours after infection, cells were harvested and their cell cycle profile was analyzed (see materials and methods). B-C.
Flow cytometry was performed as described previously by Knights, C. D., et al. J. Cell Biol. 173(4):533-544 (2006).

PCAF = target: T2, PCAF (Homo sapiens, UniProt Q92831); assay: In vitro acetylation reaction with PCAF; assay type: biochemical; settings: purified protein, 14C-acetyl CoA
T2 construct: purified SUMO-1 protein and the catalytic domain of several acetyltransferases, specifically of CBP and PCAF
T2 sequence (Q92831 503-651 limits assumed, species assumed): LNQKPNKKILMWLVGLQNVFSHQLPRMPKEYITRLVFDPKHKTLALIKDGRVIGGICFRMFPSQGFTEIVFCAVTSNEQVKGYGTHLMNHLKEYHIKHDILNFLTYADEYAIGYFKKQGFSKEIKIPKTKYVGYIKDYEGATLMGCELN
Description: Acetylation reactions were typically assembled in a 30 μl volume, containing HAT buffer (1×25 mM Tris-HCl ph 7.9; 50 mM NaCl, 1 mM DTT), 6 μl of ^14C-Acetyl-Coenzyme A (Amersham) or cold Acetyl-Coenzyme A (lithium salt, from Roche), 1-2 μg CBP, 0.5-1 μg of SUMO proteins.
The discovery of such similarities implied that this SUMO-1 domain might functionally mimic the acetylated state of similar domains of transcription factors. Two approaches were used to determine if the identified SUMO-1 domain was acetylated. First, acetylation assays were performed in vitro using purified SUMO-1 protein and the catalytic domain of several acetyltransferases, specifically of CBP and PCAF, in the presence of 14C-acetyl CoA. […] To preliminarily map the site(s) of acetylation, we tested the ability of cold synthetic polypeptides corresponding to specific SUMO-1 regions, to inhibit CBP-mediated acetylation of the full-length protein in a reaction containing 14C-acetyl CoA.

CBP [2] = target: T1, CBP; assay: In vitro acetylation reaction with CBP; assay type: biochemical; settings: purified protein, 14C-acetyl CoA, autoradiography
Description: as §1, with “proteins. […]” for “proteins.”
From the mass spectrometric analysis performed on the in vitro reactions, it was determined that CBP was able to acetylate the same residues that were found acetylated in vivo, specifically K37, K39 and K48. […]

Compound | inhibition of CBP-mediated acetylation of full-length SUMO-1 (CBP [1]) | acetylation by CBP (CBP [2]) | other results
CC(/C=C/C(=O)NO)=C\[C@@H](C)C(=O)c1ccc(N(C)C)cc1 [TSA] |  |  | acetylation signal on free SUMO-1 (SUMO-1 acetylation): stronger than that seen in untreated cells; levels of acetylation on RanGAP (SUMO-1 acetylation): only modestly influenced
COc1cc([C@@H]2c3cc4c(cc3[C@@H](O[C@@H]3O[C@@H]5CO[C@@H](C)O[C@H]5[C@H](O)[C@H]3O)[C@H]3COC(=O)[C@H]23)OCO4)cc(OC)c1O [etoposide] |  |  | acetylation signal on free SUMO-1 (SUMO-1 acetylation): stronger than that seen in untreated cells; levels of acetylation on RanGAP (SUMO-1 acetylation): only modestly influenced
HFK(Ac)VK(Ac)MTT [K37-K39] | completely blocked acetylation |  | 
YIK(Ac)LK(Ac)VIG [K25 and K26] | only weakly abrogated |  | 

Continued, in another order:

inhibition of CBP-mediated acetylation of full-length SUMO-1 (CBP [1]) | acetylation by CBP (CBP [2]) | Compound | other results
completely blocked acetylation |  | HLK(Ac)K(Ac)LK(Ac)ES [K45-K46-K48] | 
 | efficiently acetylated | SUMO-1: small ubiquitin-like modifier protein, SEQ ID NO:1; purified from Biomol or Flag-tagged expressed in H1299 cells | apoptotic cells (H1299 cells): 15%; acetylation by PCAF (PCAF): not by PCAF
 | robustly acetylated | SUMO-2: purified SUMO-2 from Biomol, SEQ ID NO:2 | 
 | robustly acetylated | SUMO-3: purified SUMO-3 from Biomol, SEQ ID NO:3 | 
